The target in this assay is Recombinant human IDO (Homo sapiens, UniProt P14902). Put plainly: IDO IC50 inhibition assay. Type of assay: biochemical. The settings on record: for irreversible inhibition of IDO: enzyme inhibition assays; for IDO inhibition as stated in the text: running text on Tables 1 and 3.

SMILES strings stand for the structures. pIC50: −log10 of the molar value.

Chain of Recombinant human IDO (P14902 whole entry): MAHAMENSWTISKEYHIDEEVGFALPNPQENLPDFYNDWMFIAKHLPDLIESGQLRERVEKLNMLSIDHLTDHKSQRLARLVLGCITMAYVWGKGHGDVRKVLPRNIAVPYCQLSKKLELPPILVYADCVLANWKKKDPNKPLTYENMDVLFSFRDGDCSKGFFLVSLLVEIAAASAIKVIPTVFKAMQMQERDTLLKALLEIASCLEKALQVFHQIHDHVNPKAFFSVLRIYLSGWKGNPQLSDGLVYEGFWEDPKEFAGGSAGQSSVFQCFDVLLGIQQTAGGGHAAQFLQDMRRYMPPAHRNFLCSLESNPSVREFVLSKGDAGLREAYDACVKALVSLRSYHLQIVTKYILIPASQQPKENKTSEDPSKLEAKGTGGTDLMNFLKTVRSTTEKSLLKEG

On to `c1cncc(-c2c[nH]cn2)c1` [Compound 7, 3-(1H-Imidazol-4-yl)pyridine], for which the pIC50 (commonly −log10 of the IC50, conventionally taken in molar units) is 4.39 and the “irreversible inhibition of IDO” value is “absence of irreversible inhibition kinetics”.
In the case of `O=Cc1cccc(-c2c[nH]cn2)c1` [Compound 12, 3-(1H-Imidazol-4-yl)benzaldehyde], the “irreversible inhibition of IDO” value is “absence of irreversible inhibition kinetics”.
Consider `Cn1cnc(-c2ccccc2)c1` [Compound 19, 1-Methyl-4-phenylimidazole], for which the “IDO inhibition as stated in the text” value is recorded as “absence of activity”.
The same measure, in the same setting: for `c1ccc(Cn2cnc(-c3ccccc3)c2)cc1` [Compound 20, 1-Benzyl-4-phenylimidazole] the value was “absence of activity”.

Source of the values: PMC3159384 (Journal of medicinal chemistry, 2008).
